The results in this text go back to US9055743B2, “Alpha, beta-unsaturated imines” (BAYER INTELLECTUAL PROPERTY GMBH, priority 2010, dated 2015).

Holding throughout (format): in vivo
The test system of one experiment is Lucilia cuprina larvae. The experiment can be described thus: Lucilia cuprina test (LUCICU). The note with it: 100 ppm, after 2 days. As for the experimental part: Lucilia cuprina Test (LUCICU)
(§1) Solvent: Dimethyl Sulphoxide
To produce a suitable preparation of active compound, 10 mg of active compound are mixed with 0.5 ml of dimethyl sulphoxide and the concentrate is diluted with water to the desired concentration. Vessels containing horsemeat treated with the active compound preparation of the desired concentration are populated with about 20 Lucilia cuprina larvae.
After 2 days, the kill in % is determined. 100% means that all larvae have been killed; 0% means that none of the larvae have been killed.

The test system of experiment [1] is green peach aphid (Myzus persicae). The experiment can be described thus: Myzus test (MYZUPE spray treatment). Particulars: 500 g/ha, spray, after 6 days. In short, it runs like this: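 Chinese cabbage leaf discs infested with all aphid stages were sprayed with compound in acetone/DMF with emulsifier, diluted in emulsifier-containing water. Mortality in % assessed after 6 days (100% = all aphids killed).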

For another experiment, the system named is Boophilus microplus. The experiment can be described thus: Boophilus microplus test (BOOPMI injection). The note with it: 20 μg/animal, injection into the abdomen, after 7 days. As for the experimental part:
Boophilus microplus Test (BOOPMI Injection)
as §1
To produce a suitable preparation of active compound, 10 mg of active compound are mixed with 0.5 ml of solvent and the concentrate is diluted with solvent to the desired concentration. The solution of active compound is injected into the abdomen (Boophilus microplus), and the animals are transferred into dishes and kept in a climatized room. The activity is assessed by […] of fertile eggs.
After 7 days, the effect in % is determined 100% means that none of the ticks has laid any fertile eggs.

A further experiment deals with Ctenocephalides felis. Nature of the experiment: Ctenocephalides felis oral test (CTECFE). The note with it: 100 ppm in citrated cattle blood, after two days. As for the experimental part: Ctenocephalides Felis Oral Test (CTECFE)
Solvent: 1 Part by Weight of Dimethyl Sulphoxide
To produce a suitable preparation of active compound, 10 mg of active compound are mixed with 0.5 ml of dimethyl sulphoxide. Part of the concentrate is diluted with citrated cattle blood, and the desired concentration is prepared.
About 20 unfed adult fleas (Ctenocephalides felis) are placed into a chamber which is closed at the top and bottom with gauze. A metal cylinder whose bottom end is closed with parafilm is placed onto the chamber. The cylinder contains the blood/active compound preparation, which can be taken up by the fleas through the parafilm membrane. After two days, the kill in % is determined 100% means that all fleas have been killed; 0% means that none of the fleas have been killed.

Experiment [2] relates to cat fleas (Ctenocephalides felis, fully sensitive laboratory strain). Nature of the experiment: Contact test against fleas in-vitro (CTECFE contact). Particulars: 500 g/ha, after 48 h. As for the experimental part: Contact Test Against Fleas In-Vitro (CTECFE Contact)
An amount of 0.9 mg of active compound is weighed out, and 1 ml of acetone is added.
Of this acetone solution, either […] are transferred directly into roll-necked test tubes or an aliquot is diluted with 4 parts of acetone 1:5. For its part, 250 μl of this dilution are pipetted into roll-necked test tubes, or the dilution is diluted further, etc., until the desired number of dilution steps is reached.
The roll-necked test tubes containing the solution of the active compound in acetone are immediately coated in a fume cupboard by 2 h of swing rotation at 30 rpm. After evaporation of the solvent, the active compound contained in the acetone gives, at the highest concentration tested, an active compound content of 500 g/ha (or 500 μg/dm^2) on the surface of the test tube.
10-20 Adult cat fleas (Ctenocephalides felis, fully sensitive laboratory strain) anesthetized with CO2 are transferred into the test tubes prepared in this manner, and the test tubes are closed with a plastic roll-necked lid provided with fine holes.
The test tubes are stored vertically at room temperature and humidity for 24 or 48 h. After 24 and 48 h, the activity of the active compound applied is determined by comparison with an acetone-treated control. Here, an observed normal activity for all fleas corresponds to 0% activity, a strongly restricted or uncoordinated (knock-down) movement or death of all fleas corresponds to 100% activity.

Experiment [3] deals with Anopheles gambiae (homocygus kdr). The experiment can be described thus: Anopheles test (ANPHGB surface treatment). Particulars: for knock-down activity: 100 mg/m^2, two hours after contact, exposition 30 minutes. The method, boiled down: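 Compound dissolved in acetone at 2 mg/ml, pipetted onto glazed tile and dried; adult kdr-homozygous mosquitoes exposed on the tile for 30 min. Knock-down (%) read 2 h and mortality (%) 24 h after contact.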

Experiment [4] deals with larvae of the mustard beetle (Phaedon cochleariae). Nature of the experiment: Phaedon test (PHAECO spray treatment). The note with it: 500 g/ha, spray, after 7 days. The method, boiled down: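 Chinese cabbage leaf discs sprayed with compound formulated in acetone/dimethylformamide with alkylaryl polyglycol ether emulsifier, diluted in emulsifier-containing water to the desired concentration. After drying, discs were populated with mustard beetle larvae.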

Experiment [5] deals with greenhouse red spider mite (Tetranychus urticae). The experiment can be described thus: Tetranychus test; OP-resistant (TETRUR spray treatment). Particulars: 500 g/ha, spray, after 6 days. In short, it runs like this: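 Bean leaf discs infested with all stages of OP-resistant Tetranychus urticae were sprayed with compound in acetone/DMF with alkylaryl polyglycol ether emulsifier, diluted in emulsifier-water. Mortality was scored after 6 days: 100% means all mites killed, 0% none.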

Experiment [6] deals with caterpillars of the army worm (Spodoptera frugiperda). Nature of the experiment: Spodoptera frugiperda test (SPODFR spray treatment). Particulars: 500 g/ha, spray, after 7 days. In short, it runs like this:
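Maize leaf discs sprayed with compound formulated in acetone/dimethylformamide plus alkylaryl polyglycol ether emulsifier and diluted in water, then infested with Spodoptera frugiperda caterpillars once dry. Mortality scored after 7 days as % activity, where 100% means all caterpillars killed.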

The test system of a further experiment is Aedes aegypti. The experiment can be described thus: Aedes test (AEDSAE surface treatment). The note with it: 100 mg/m^2, two hours after contact, exposition 30 minutes. As for the experimental part:
Aedes Test (AEDSAE Surface Treatment)
To produce a suitable preparation of active compound, the active compound is dissolved in acetone (2 mg/ml). The active compound preparation is pipetted onto a glazed tile and, after drying, adult mosquitoes of the species Aedes aegypti are placed onto the treated tile. The exposition time is 30 minutes.
Two hours after contact to the treated surface, the knock-down proportion of the test animals in % is determined.
24 hours after contact to the treated surface, the mortality in % is determined Here, 100% means that all mosquitoes have been killed; 0% means that none of the mosquitoes has been killed.

`Cc1ccc(N=C2C(=CSc3ccc(C(F)(F)F)cc3)CCc3ccccc32)cc1` [Example 1-82]: the “activity (kill in %)” value in the experiment with Lucilia cuprina larvae and in the experiment with Ctenocephalides felis was 100% in each case. Besides, in [1], the “activity (aphids killed)” value is on record as 100%. The “activity (100% = none of the ticks has laid any fertile eggs)” value in the experiment with Boophilus microplus was determined as 100%. In addition, the “activity against cat fleas” value in experiment [2] is 100%. The knock-down activity in experiment [3] was determined as 100%. Further, in [4], the “activity (beetle larvae killed)” value is 100%. Moreover, in [5], the “activity (spider mites killed)” value came out at 100%. In [6], the “activity (caterpillars killed)” value was 100%.

Take `Cc1ccc(N=C2C(=CSc3ccc(F)cc3F)CCc3ccccc32)cc1` [Example 1-79]: the “activity (kill in %)” value in the experiment on Lucilia cuprina larvae and with Ctenocephalides felis was 100% each time. The “activity (aphids killed)” value in experiment [1] was 100%. The “activity (100% = none of the ticks has laid any fertile eggs)” value in the experiment with Boophilus microplus is 100%. For the same molecule, in experiment [2], the “activity against cat fleas” value came to 100%. Further, the knock-down activity (in experiment [3]; in the experiment with Aedes aegypti) was 100% each time. Also, in [4], the “activity (beetle larvae killed)” value stood at 100%. In [5], the “activity (spider mites killed)” value worked out at 100%. Moreover, the “activity (caterpillars killed)” value in experiment [6] is 100%.

Consider `Cc1ccc(N=C2C(=CSc3ccccc3Cl)CCc3ccccc32)cc1` [Example 1-69], for which the “activity (kill in %)” value with Lucilia cuprina larvae and in the experiment on Ctenocephalides felis was 100% each time. For the same molecule, the “activity (aphids killed)” value in experiment [1] is reported as 90%. In addition, the “activity (100% = none of the ticks has laid any fertile eggs)” value in the experiment with Boophilus microplus is given as 100%. The “activity against cat fleas” value in experiment [2] was determined as 100%. The knock-down activity in [3] is given as 90%. Also, the “activity (beetle larvae killed)” value in [4] is 100%. Also, the “activity (spider mites killed)” value in [5] is 100%. Also, in experiment [6], the “activity (caterpillars killed)” value is listed as 100%.

As to `Cc1ccc(N=C2C(=CSc3cc(F)cc(F)c3)CCc3ccccc32)cc1` [Example 1-81], the “activity (kill in %)” value in the experiment with Lucilia cuprina larvae and in the experiment with Ctenocephalides felis was 100% each time. Also, in [1], the “activity (aphids killed)” value is given as 100%. The “activity (100% = none of the ticks has laid any fertile eggs)” value in the experiment with Boophilus microplus is 100%. In experiment [2], the “activity against cat fleas” value is recorded as 100%. In experiment [3], this molecule registered a knock-down activity of 100%. Also, in [4], the “activity (beetle larvae killed)” value is reported as 100%. For the same molecule, the “activity (spider mites killed)” value in [5] was 100%. Besides, the “activity (caterpillars killed)” value in [6] was 100%.

Consider `Cc1ccc(N=C2C(=CSc3ccc(F)c(F)c3)CCc3ccccc32)cc1` [Example 1-74], for which the figures for the “activity (kill in %)” value in the experiment with Lucilia cuprina larvae and in the experiment on Ctenocephalides felis were 100% and 80%, respectively. The “activity (aphids killed)” value in [1] is listed as 100%. Moreover, in the experiment with Boophilus microplus, the “activity (100% = none of the ticks has laid any fertile eggs)” value worked out at 100%. Moreover, in experiment [2], the “activity against cat fleas” value is 100%. Also, the knock-down activity in experiment [3] is recorded as 100%; with Aedes aegypti it was 95%. In [4], the “activity (beetle larvae killed)” value was found to be 100%. The “activity (spider mites killed)” value in experiment [5] was 100%. The “activity (caterpillars killed)” value in experiment [6] came out at 100%.

Consider `Cc1ccc(N=C2C(=CSc3ccc(F)cc3)C(C)c3cc(C)ccc32)c(C)c1` (mixture of isomers) [Example 1-85], for which the “activity (kill in %)” value in the experiment with Lucilia cuprina larvae was determined as 100%; in the experiment with Ctenocephalides felis, 90%. For the same molecule, the “activity (aphids killed)” value in experiment [1] stood at 100%. In the experiment on Boophilus microplus, the “activity (100% = none of the ticks has laid any fertile eggs)” value stood at 100%. The “activity against cat fleas” value in experiment [2] is reported as 100%. Also, the knock-down activity in [3] is recorded as 100%. The “activity (beetle larvae killed)” value in experiment [4] came out at 100%. Moreover, the “activity (spider mites killed)” value in experiment [5] was 100%. For the same molecule, in experiment [6], the “activity (caterpillars killed)” value was determined as 100%.

The mortality is the share of the test organisms that died. For the molecule `Fc1ccc(N=C2/C(=C/Sc3ccccc3)CCc3ccccc32)cc1` [Example 1-3, 4-Fluoro-N-[(2E)-2-[(phenylsulphanyl)methylene]-3,4-dihydronaphthalen-1(2H)-ylidene]aniline], the “activity (kill in %)” value in the experiment with Lucilia cuprina larvae is given as 100%; in the experiment with Ctenocephalides felis it was 90%. Further, the pest or weed control at 500 g/ha is 100% in [1] (Myzus persicae, 144 h, read-out: activity (aphids killed)); 100% in experiment [4] (Phaedon cochleariae, 168 h, read-out: activity (beetle larvae killed)); 100% in [5] (Tetranychus urticae, 144 h, read-out: activity (spider mites killed)); 100% in [6] (Spodoptera frugiperda, 168 h, read-out: activity (caterpillars killed)). In addition, the “activity (100% = none of the ticks has laid any fertile eggs)” value with Boophilus microplus stood at 100%. Moreover, the “activity against cat fleas” value in [2] was 100%. Further, in [3], the knock-down activity is listed as 80%. The mortality at 100 mg/m2 in [3] (Anopheles gambiae, read-out: activity (mortality in %)) is 100%.

In the case of `Cc1ccc(N=C2C(=CSc3ccccc3F)CCc3ccccc32)cc1` [Example 1-80], the “activity (kill in %)” value came to 100% with Lucilia cuprina larvae and 90% in the experiment with Ctenocephalides felis. The “activity (aphids killed)” value in [1] stood at 100%. In addition, the “activity (100% = none of the ticks has laid any fertile eggs)” value with Boophilus microplus is 100%. Moreover, in experiment [2], the “activity against cat fleas” value was found to be 100%. The knock-down activity stood at 100% in [3] and 80% in the experiment on Aedes aegypti. In [4], the “activity (beetle larvae killed)” value stood at 100%. The “activity (spider mites killed)” value in experiment [5] amounted to 100%. Also, the “activity (caterpillars killed)” value in experiment [6] is recorded as 100%.

As for `CC1C(=CSc2ccccc2)C(=Nc2ccc(F)cc2)c2ccccc21` (mixture of isomers) [Example 1-6], the “activity (kill in %)” value with Lucilia cuprina larvae and with Ctenocephalides felis was 100% in each case. Further, the “activity (aphids killed)” value in experiment [1] is on record as 100%. Also, the “activity (100% = none of the ticks has laid any fertile eggs)” value in the experiment with Boophilus microplus turned out to be 100%. Besides, in experiment [2], the “activity against cat fleas” value is reported as 100%. Besides, the “activity (beetle larvae killed)” value in [4] came out at 100%. The “activity (spider mites killed)” value in [5] is given as 100%. In experiment [6], the “activity (caterpillars killed)” value was 100%.
